Data set [1] has as its system SARS-CoV-2 (original wild-type, hCoV-19/Korea/KCDC06/2020). Put plainly: microbe, parasite or virus in culture. In kind it is cell-based. The conditions noted are these: for EC50: Severe acute respiratory syndrome coronavirus 2, Vero cells, immunofluorescence images, n = 3, read-out: EC50, half maximal effective concentration to reduce SARS-CoV-2 spike protein expression by 50%.

Data set [2] deals with SARS-CoV-2. In kind it is cell-based. Particulars: 20 µM, Vero cells; for nuclei numbers compared to the control: DAPI.
A short description of data set [3]: in vitro. Particulars: African green monkey.
Description: Following the method described earlier, Vero cells in 96 wells were treated with threefold serial dilutions of each compound, ranging from 100 µM to 5 nM, both with and without SARS-CoV-2 infection at 0.01 MOI. […] Concurrently, the viability of mock-infected cells was assessed using a 3-(4,5-dimethylthiazol-2-yl)−2,5-diphenyltetrazolium bromide (MTT) assay to determine the 50% cytotoxic concentration (CC50). The selectivity index (SI) is calculated as the ratio of CC50 to EC50.
Data set [4] deals with endo-lysosomal vesicles of Vero cells. Description: Acridine orange staining of endo-lysosomal vesicle pH in Vero cells. In kind it is cell-based. Particulars: 10 µM, 1 h at 37°C. Here is the method:
To monitor pH changes in endo-lysosomal vesicles, Vero cells (8 × 10^4 cells per 35 mm dish) were treated with either DMSO or 10 µM diphenoxylate for 1 h at 37°C. After washing with PBS, they were stained with acridine orange (8 µg/mL) for an additional 30 min. With excitation at 488 nm, live cell images were scanned at two wide-band emission wavelength ranges: 493–560 nm (green) and 590–720 nm (red). All fluorescent images were obtained using a Zeiss LSM 700 confocal microscope and analyzed with ZEN software (Carl Zeiss, Thornwood, NY, USA).
Fig 4 Deacidification of endo-lysosomal vesicles by diphenoxylate. Vero cells were treated with DMSO as a mock control (upper), or with 10 µM diphenoxylate (lower), at 37°C for 1 h. […] Fluorescence images were acquired after excitation at 488 nm, at two different emission wavelengths: 493–560 nm (green; left) and 590–720 nm (red; middle). The images were merged (right) to distinguish acidic (red) and neutralized cytoplasmic vesicles (green or yellow) based on the red-to-green fluorescence intensity ratio. […]
Figure S2. […] After excitation at 488 nm, fluorescence images were acquired at two different emission wavelengths: 493-560 nm (green; left) and 590-720 nm (red; middle). The images were merged (right) to distinguish acidic (red) and neutralized cytoplasmic vesicles (green or yellow) based on the red-to-green fluorescence intensity ratio. […]

The conditions of data set [5]: mice.
The nature of data set [6]: in vivo. The conditions noted are these: male, ICR, mouse, iv, 5 mg/kg, T1/2, terminal half-life in plasma, mice, diphenoxylate 5 mg/kg intravenously, analyte in plasma, mean ± SEM, three mice.
The conditions of data set [7]: cited from earlier work.
In data set [8] the test system is SARS-CoV-2. In kind it is in vivo, mice.
The subject of data set [9] is Calu-3 cells. Particulars: MTT.
Description: Calu-3 cells. Calu-3 cells were either mock-infected or infected with SARS-CoV-2 (MOI, 0.1)
(§1) On Day 1 after treatment, the viral S protein was labeled with its specific antibody for an
immunofluorescence assay, while mock-infected cells were incubated with MTT. Antiviral
(§2) activity was determined by calculating the percentage inhibition of the S protein level relative
to that in SARS-CoV-2-infected, DMSO-treated cells (red line). Cell viability was determined
by measuring cell metabolic activity using MTT relative to naive cells (black line). All values
(§3) are represented as the mean ± SEM from three independent experiments.
Data set [10] has as its system SARS-CoV-2. Put plainly: Antiviral activity assay (anti-S immunofluorescence) in Calu-3 cells. Particulars: Severe acute respiratory syndrome coronavirus 2, Calu-3, 24 h.
Excerpt: These mixtures were serially diluted threefold, eight times, in EMEM and used to treat SARS-CoV-2-infected Calu-3 cells (MOI of 0.01). On day 1, cells were immunostained with an anti-S-antibody and its fluorescently labeled secondary antibody to estimate the two fractional EC50s (FEC50s) for each drug combination, as well as their sum (ΣFEC50). The interaction was defined as synergistic when the ΣFEC50 value was less than 0.8 ([27]).
Calu-3 cells were either mock-infected or infected with SARS-CoV-2 (MOI, 0.1)
as §1
immunofluorescence assay, while mock-infected cells were incubated with MTT.
as §2
to that in SARS-CoV-2-infected, DMSO-treated cells (red line).
as §3
The subject of data set [11] is SARS-CoV-2. In kind it is cell-based. Particulars: Vero cells; 1, 10 and 100 µM; day 1.
Data set [12] deals with SARS-CoV-2. In kind it is cell-based.
Data set [13] concerns SARS-CoV-2. In kind it is cell-based. The source holds these as a separate data set.
Data set [14] has as its system SARS-CoV-2. Put plainly: Confocal microscopy of viral N protein distribution (endocytic uptake) in Vero cells. In kind it is cell-based. Particulars: 10 or 30 µM.
Data set [15] has as its system SARS-CoV-2. In kind it is cell-based. Particulars: Calu-3 cells; 0.001–100 µM; day 2.
Data set [16] relates to SARS-CoV-2. In kind it is cell-based. The conditions noted are these: Calu-3 cells, day 2.
For data set [17], the system named is SARS-CoV-2. Description: Antiviral assay using human tonsil organoids (RT-PCR of supernatants). In kind it is cell-based. Particulars: day 2.

These results are taken from article PMC11620506, “Inhibition of endocytic uptake of severe acute respiratory syndrome coronavirus 2 and endo-lysosomal acidification by diphenoxylate” (Antimicrobial Agents and Chemotherapy, 2024).

Entries after “also recorded” stand apart in the source; their conditions may differ. Where two headings read alike, the source gives them in different places.

What is called half-life is how long it takes for the measured level to halve.

For `Cc1cccc(CN2CCN(C(c3ccccc3)c3ccc(Cl)cc3)CC2)c1` (stereo not drawn) [Meclizine, meclizine], in data set [1], the “SI, selectivity index, ratio of CC50 to EC50” value (from here on “SI, selectivity index, ratio”) was determined as 4.2 and the EC50 worked out at 21.4 ± 3 µM. In addition, in data set [2], the “nuclei numbers compared to the control” value was 80%–120% and the “reduction of S protein expression level” value was “over 90%”. The compound also returned a CC50 in [3] of 89.5 ± 4.4 µM.
In the case of `N#CC(CCN1CCC(C(=O)O)(c2ccccc2)CC1)(c1ccccc1)c1ccccc1` [Difenoxin, difenoxin], in [1], the EC50 is over 100 µM. Also, the “effect on acidic pH of endo-lysosomal vesicles” value in [4] is on record as “failed to deacidify endo-lysosomes”. In addition, the “T1/2, terminal half-life in plasma” value in data set [5] (diphenoxylate 5 mg/kg intravenously, analyte in plasma, mean ± SEM, three mice) is 3.6 ± 0.2 h. Moreover, the half-life in [6] is 6.4 h. Besides, the CC50 in [3] is over 100 µM.
As for `CN(C)c1ccc2cc3ccc(N(C)C)cc3nc2c1` [acridine orange], in data set [7], the pKa entry was “approximately 9.65”.
As for `CC(C)C(=O)OC[C@H]1O[C@@H](n2ccc(NO)nc2=O)[C@H](O)[C@@H]1O` [molnupiravir], the “viral RNA levels in lungs (qRT-PCR, S gene)” value in data set [8] (hACE2 transgenic mice, 50 mg/kg/day oral, BID, […]) is “significantly reduced”.
`N=C(N)c1ccc2cc(OC(=O)c3ccc(N=C(N)N)cc3)ccc2c1` [nafamostat]: the “cytotoxicity at the highest tested concentration” value in data set [9] (300 nM) is reported as “no cytotoxicity”. In addition, the EC50 in data set [10] is 0.0035 ± 0.0005 µM.
As to `COC(=O)C1=C(C)NC(C)=C(C(=O)OCCN2CCN(C(c3ccccc3)c3ccccc3)CC2)C1c1cccc([N+](=O)[O-])c1` (stereo not drawn) [Manidipine, manidipine], in data set [1], the “SI, selectivity index, ratio” value worked out at 1.7 and the EC50 amounted to 26.8 ± 1.1 µM. Besides, in data set [2], the “nuclei numbers compared to the control” value is recorded as 80%–120% and the “reduction of S protein expression level” value is recorded as “over 90%”. In data set [3], this compound came in with a CC50 of 46.6 ± 0.5 µM.
With `Fc1ccc(C(c2ccc(F)cc2)N2CCN(C/C=C/c3ccccc3)CC2)cc1` [Flunarizine, flunarizine], in [1], the “SI, selectivity index, ratio” value turned out to be 2.4 and the EC50 amounted to 12.9 ± 5.7 µM. Also, in data set [2], the “nuclei numbers compared to the control” value was 80%–120% and the “reduction of S protein expression level” value is listed as “over 90%”. The same compound displayed a CC50 in data set [3] of 30.6 ± 1.8 µM.
In the case of `CCOC(=O)C1(c2ccccc2)CCN(CCC(C#N)(c2ccccc2)c2ccccc2)CC1` [Diphenoxylate, diphenoxylate], in [1], the “SI, selectivity index, ratio” value is recorded as over 71.4 and the EC50 was found to be 1.4 ± 1.1 µM. Moreover, in data set [2], the “nuclei numbers compared to the control” value is given as 80%–120% and the “reduction of S protein expression level” value is given as “over 90%”. In addition, the “levels of S2 and additional S cleavage products (Western blot)” value in [11] was “dose-dependently reduced”. Besides, in data set [12], the “viral RNA copy numbers in culture supernatants” value is “efficiently suppressed”. The “reduction in plaque numbers” value in [13] was “approximately two-log reduction; also recorded: substantial reduction; also recorded: not under the post-treatment condition”. Besides, in data set [13] (20 µM, co-treatment (pre-incu), 30 min preincubation with virus), the “reduction in plaque numbers” value is reported as “substantial reduction”. Besides, in [14], the “effect on receptor-mediated endocytosis of SARS-CoV-2 (N protein localisation)” value is listed as “inhibits receptor-mediated endocytosis of SARS-CoV-2”. In addition, the “effect on acidic pH of endo-lysosomal vesicles” value in data set [4] was “neutralizes the acidic environment of endo-lysosomal organelles”. Besides, the “expression of viral proteins S and N (Western blot)” value in data set [15] is “suppressed the expression of viral proteins S and N dose dependently”. Further, the “decrease of viral RNA levels in culture supernatants” value in data set [16] (10 µM) is listed as “one”. In addition, the “reduction in viral RNA levels in culture supernatants” value in data set [17] (100 µM) is “between one and two logs”. Moreover, in data set [8] (hACE2 transgenic mice, […], on day 3, 10 mg/kg/day), the “reduction of viral RNA copy number in the lungs” value stood at 70%. For the same compound, in data set [8] (mouse, in vivo, 10 mg/kg/day), the “viral RNA levels in lungs (qRT-PCR, S gene)” value is listed as “significantly reduced”. The “cytotoxicity at the highest tested concentration” value in data set [9] (300 µM) is recorded as “no cytotoxicity”. In addition, in data set [5] (within 30 min after intravenous injection, 5 mg/kg), the “fraction converted into difenoxin” value was “approximately 90%”. This compound also had a half-life in data set [6] of 6.4 ± 0.9 h. Besides, the CC50 in data set [3] was over 100 µM. Besides, the EC50 in [10] was determined as 21.9 ± 2.1 µM.
As for `CCC(CC)COC(=O)[C@H](C)N[P@](=O)(OC[C@H]1O[C@@](C#N)(c2ccc3c(N)ncnn23)[C@H](O)[C@@H]1O)Oc1ccccc1` [RDV, remdesivir], the EC50 in data set [1] was found to be 7.6 ± 1.2 µM. In addition, in data set [11], the “levels of S2 and additional S cleavage products (Western blot)” value is given as “dose-dependently reduced”. Further, the “viral RNA copy numbers in culture supernatants” value in [12] was “efficiently suppressed”. For the same compound, the “reduction of viral RNA levels in culture supernatants” value in data set [16] (concentration not given) was “exceeding four logs”. Also, the “reduction in viral RNA levels in culture supernatants” value in [17] (10 µM) was “between one and two logs”. This compound also had a CC50 in data set [3] of over 100 µM.
Regarding `OC(CCN1CCCCC1)(c1ccccc1)c1ccccc1` [pridinol], the EC50 in [1] is about 96.4 µM.
